{
  "source": "ChEMBL document CHEMBL5316267",
  "about": "“Subnanomolar Affinity and Selective Antagonism at α7 Nicotinic Receptor by Combined Modifications of 2-Triethylammonium Ethyl Ether of 4-Stilbenol (MG624)” (J Med Chem, 2023)",
  "key": {"[1]": {"molecular_target": "Neuronal acetylcholine receptor; alpha4/beta2 (Homo sapiens, UniProt P17787+P43681)", "sequence (P17787 whole entry)": "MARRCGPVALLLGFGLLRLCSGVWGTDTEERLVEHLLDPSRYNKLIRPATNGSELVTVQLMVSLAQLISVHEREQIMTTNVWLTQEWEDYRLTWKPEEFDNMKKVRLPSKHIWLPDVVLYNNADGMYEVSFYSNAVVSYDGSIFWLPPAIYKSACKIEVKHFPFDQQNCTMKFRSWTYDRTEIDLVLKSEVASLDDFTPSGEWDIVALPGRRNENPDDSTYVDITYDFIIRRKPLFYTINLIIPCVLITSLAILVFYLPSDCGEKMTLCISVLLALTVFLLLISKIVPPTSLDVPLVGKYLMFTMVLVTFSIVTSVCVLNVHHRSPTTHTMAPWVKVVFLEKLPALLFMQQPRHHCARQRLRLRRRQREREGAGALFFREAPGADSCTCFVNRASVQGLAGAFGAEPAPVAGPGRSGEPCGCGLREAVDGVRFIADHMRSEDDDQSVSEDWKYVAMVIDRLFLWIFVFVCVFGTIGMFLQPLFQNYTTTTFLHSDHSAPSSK", "sequence (P43681 whole entry)": "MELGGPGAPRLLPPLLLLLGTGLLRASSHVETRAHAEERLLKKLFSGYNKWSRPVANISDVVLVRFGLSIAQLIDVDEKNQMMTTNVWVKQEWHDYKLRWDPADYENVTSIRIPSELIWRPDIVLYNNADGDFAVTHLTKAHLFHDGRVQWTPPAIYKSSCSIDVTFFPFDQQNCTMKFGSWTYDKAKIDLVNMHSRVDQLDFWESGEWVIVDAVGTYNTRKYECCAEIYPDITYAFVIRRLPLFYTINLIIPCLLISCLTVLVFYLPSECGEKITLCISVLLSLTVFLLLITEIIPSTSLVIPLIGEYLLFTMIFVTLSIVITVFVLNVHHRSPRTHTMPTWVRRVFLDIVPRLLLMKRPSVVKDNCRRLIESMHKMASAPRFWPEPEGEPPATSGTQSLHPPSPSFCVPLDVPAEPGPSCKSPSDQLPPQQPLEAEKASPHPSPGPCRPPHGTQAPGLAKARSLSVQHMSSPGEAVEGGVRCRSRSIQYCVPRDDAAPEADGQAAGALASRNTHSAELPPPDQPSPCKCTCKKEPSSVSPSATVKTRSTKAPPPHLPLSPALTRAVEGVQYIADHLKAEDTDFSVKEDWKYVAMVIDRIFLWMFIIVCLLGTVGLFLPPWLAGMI", "assay": "Displacement of [3H]-Epibatidine from alpha4beta2 nAChR (unknown origin) expressed in HEK293 cell membrane assessed as inhibition constant by beta counter method", "format": "cell membranes"}, "[2]": {"molecular_target": "Neuronal acetylcholine receptor subunit alpha-7 (Homo sapiens) (UniProt P36544)", "sequence (P36544 whole entry)": "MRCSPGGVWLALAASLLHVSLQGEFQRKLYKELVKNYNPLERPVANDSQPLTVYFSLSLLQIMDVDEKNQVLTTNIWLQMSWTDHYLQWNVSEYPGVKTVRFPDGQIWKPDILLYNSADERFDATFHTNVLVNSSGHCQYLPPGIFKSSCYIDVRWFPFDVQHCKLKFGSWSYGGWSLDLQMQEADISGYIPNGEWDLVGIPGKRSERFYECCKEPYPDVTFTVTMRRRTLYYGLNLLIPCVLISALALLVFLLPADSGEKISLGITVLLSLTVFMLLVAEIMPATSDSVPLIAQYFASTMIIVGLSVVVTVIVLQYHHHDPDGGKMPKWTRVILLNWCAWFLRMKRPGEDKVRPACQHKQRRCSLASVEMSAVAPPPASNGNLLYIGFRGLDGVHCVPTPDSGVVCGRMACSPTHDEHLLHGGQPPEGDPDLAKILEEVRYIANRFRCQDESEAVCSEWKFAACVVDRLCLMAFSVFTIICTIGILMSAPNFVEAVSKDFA", "assay": "Antagonist activity at human alpha7 nAChR expressed in acetylcholine-induced Xenopus laevis oocytes treated for 1 sec followed by acetylcholine stimulation 1 min post-compound treatment at holding potential of -70 mV by two electrode voltage-clamp assay", "format": "cell-based", "conditions": "Oocyte, filed as antagonist, time 61.0 sec"}, "[3]": {"molecular_target": "Neuronal acetylcholine receptor; alpha9/alpha10 (Homo sapiens) (UniProt Q9UGM1+Q9GZZ6)", "assay": "Partial agonist activity at human alpha9alpha10 nAChR expressed in acetylcholine-induced Xenopus laevis oocytes assessed as residual activity treated for 1 sec followed by acetylcholine stimulation for 1 min post-compound treatment at holding potential of -70 mV by two electrode voltage-clamp assay", "format": "cell-based", "conditions": "Oocyte, time 61.0 sec"}, "[4]": {"molecular_target": "Neuronal acetylcholine receptor; alpha3/beta4 (Homo sapiens, UniProt P30926+P32297)", "sequence (P30926 whole entry)": "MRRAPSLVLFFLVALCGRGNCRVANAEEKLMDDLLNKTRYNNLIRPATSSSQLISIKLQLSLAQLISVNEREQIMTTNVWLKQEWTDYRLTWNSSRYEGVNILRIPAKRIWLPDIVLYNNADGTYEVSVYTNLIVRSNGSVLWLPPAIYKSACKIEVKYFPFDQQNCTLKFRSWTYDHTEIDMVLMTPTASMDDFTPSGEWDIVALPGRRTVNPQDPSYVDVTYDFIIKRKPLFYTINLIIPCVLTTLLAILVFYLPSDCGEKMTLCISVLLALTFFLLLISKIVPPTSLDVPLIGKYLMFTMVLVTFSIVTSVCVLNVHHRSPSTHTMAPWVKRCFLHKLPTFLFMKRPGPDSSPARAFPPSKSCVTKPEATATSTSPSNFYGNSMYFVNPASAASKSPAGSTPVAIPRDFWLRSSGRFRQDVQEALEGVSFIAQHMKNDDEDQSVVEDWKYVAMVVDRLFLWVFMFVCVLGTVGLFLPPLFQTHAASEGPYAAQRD", "sequence (P32297 whole entry)": "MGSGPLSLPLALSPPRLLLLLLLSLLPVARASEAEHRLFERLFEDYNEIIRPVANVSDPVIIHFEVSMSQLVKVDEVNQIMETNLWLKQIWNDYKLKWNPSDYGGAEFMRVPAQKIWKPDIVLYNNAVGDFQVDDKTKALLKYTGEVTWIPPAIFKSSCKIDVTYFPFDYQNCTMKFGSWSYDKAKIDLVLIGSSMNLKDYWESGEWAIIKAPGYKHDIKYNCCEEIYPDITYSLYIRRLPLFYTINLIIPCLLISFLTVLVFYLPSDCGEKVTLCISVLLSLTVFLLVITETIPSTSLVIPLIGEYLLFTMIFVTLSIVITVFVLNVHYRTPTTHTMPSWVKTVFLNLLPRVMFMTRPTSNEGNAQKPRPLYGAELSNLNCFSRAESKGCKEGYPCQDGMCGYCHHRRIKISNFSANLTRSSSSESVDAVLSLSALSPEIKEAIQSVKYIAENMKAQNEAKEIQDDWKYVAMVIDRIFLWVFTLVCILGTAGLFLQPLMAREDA", "assay": "Displacement of [3H]-Epibatidine from alpha3beta4 nAChR (unknown origin) expressed in SH-EP1 cell membrane assessed as inhibition constant by beta counter method", "format": "cell membranes"}},
  "note": "Activity calls are given as the source filed them. The calls are words filed in the database; no cut-off is given here.",
  "data": [
    {"smiles": "CC[N+](CC)(CC)CCOc1ccc(OCc2ccccc2)cc1", "values": [
      {"measurement": "Ki", "setting": "[1]", "result": 7.5, "unit": "µM"}
    ]},
    {"smiles": "C[N+]1(C)CC[C@@H](Oc2ccc(-c3ccc4[nH]ccc4c3)cc2)C1", "values": [
      {"measurement": "Activity", "setting": "[2]", "result": "Active"}
    ]},
    {"smiles": "CC[N+](CC)(CC)CCOc1ccc(CCc2ccccc2)cc1", "values": [
      {"measurement": "Activity", "setting": "[3]", "result": "inactive"}
    ]},
    {"smiles": "CC[N+](CC)(CC)CCOc1ccc(-c2cccc3ccccc23)cc1", "values": [
      {"measurement": "Ki", "setting": "[4]", "result": 0.097, "unit": "µM"}
    ]}
  ]
}
